These results are taken from paper PMC4618646 (Pharmacology Research & Perspectives, 2015).

The solubility is the concentration that dissolves in the medium under given conditions. High values mean a readily soluble substance, low ones a poorly soluble substance. As a reminder, the Ki is a measure of affinity in units of concentration, obtained from inhibition or displacement. By IC50 is commonly meant the point on the concentration scale where inhibition reaches its midpoint. For orientation: inhibition means the share of the control response that was lost under treatment. Higher therefore signals a response far below the control.

Values after ≈ are worked out from the molar mass of the structure shown. Like-named read-outs stand apart in the source and are kept apart here.

For data set [1] the following is noted: phase II clinical trials for RA; ref Silverman et al. [2008]; cited from earlier work.
Data set [2] is classed as physicochemical.
In data set [3] the test system is human kinases. The data set is classed as binding. As to conditions: 10 μmol/L single concentration screen; for 197 of 387 kinases.
Data set [4] concerns the target T1, Adenosine A3 receptor (Homo sapiens, UniProt P0DMS8).
T1 sequence (P0DMS8 1-318): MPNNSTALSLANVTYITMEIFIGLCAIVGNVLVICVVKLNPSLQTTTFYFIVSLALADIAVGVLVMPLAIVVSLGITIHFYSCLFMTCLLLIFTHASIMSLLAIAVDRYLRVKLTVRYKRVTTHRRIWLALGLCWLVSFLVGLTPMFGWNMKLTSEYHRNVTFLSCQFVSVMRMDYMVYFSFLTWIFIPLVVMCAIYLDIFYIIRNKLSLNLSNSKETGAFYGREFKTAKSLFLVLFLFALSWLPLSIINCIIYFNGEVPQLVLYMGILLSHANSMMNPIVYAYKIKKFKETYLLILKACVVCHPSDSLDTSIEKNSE
Briefly: Adenosine A3 receptor. As to conditions: Radioligand binding Ki.

The target in data set [5] is T2, Fatty acid amide hydrolase (FAAH) (Rattus norvegicus, UniProt P97612).
T2 sequence (P97612 1-579): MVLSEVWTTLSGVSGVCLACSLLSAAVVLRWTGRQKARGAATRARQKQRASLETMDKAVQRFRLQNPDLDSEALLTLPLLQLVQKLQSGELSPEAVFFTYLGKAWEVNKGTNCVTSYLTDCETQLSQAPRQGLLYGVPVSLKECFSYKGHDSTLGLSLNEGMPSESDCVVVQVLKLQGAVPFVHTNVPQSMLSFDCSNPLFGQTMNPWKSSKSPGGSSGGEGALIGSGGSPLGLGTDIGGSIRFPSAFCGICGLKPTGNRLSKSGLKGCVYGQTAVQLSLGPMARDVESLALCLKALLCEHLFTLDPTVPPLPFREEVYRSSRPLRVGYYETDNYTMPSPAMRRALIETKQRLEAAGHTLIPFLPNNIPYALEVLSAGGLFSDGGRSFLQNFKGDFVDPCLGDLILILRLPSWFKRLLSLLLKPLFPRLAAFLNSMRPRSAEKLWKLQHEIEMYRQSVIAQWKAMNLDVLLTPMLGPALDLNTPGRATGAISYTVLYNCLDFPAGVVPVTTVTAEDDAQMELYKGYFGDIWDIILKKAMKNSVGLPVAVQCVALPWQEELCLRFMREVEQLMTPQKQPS
Briefly: Fatty acid amide hydrolase. The format is biochemical.

Data set [6] concerns the target T3, Lipoxygenase 5-LO (Homo sapiens, UniProt P09917).
T3 sequence (P09917 1-674): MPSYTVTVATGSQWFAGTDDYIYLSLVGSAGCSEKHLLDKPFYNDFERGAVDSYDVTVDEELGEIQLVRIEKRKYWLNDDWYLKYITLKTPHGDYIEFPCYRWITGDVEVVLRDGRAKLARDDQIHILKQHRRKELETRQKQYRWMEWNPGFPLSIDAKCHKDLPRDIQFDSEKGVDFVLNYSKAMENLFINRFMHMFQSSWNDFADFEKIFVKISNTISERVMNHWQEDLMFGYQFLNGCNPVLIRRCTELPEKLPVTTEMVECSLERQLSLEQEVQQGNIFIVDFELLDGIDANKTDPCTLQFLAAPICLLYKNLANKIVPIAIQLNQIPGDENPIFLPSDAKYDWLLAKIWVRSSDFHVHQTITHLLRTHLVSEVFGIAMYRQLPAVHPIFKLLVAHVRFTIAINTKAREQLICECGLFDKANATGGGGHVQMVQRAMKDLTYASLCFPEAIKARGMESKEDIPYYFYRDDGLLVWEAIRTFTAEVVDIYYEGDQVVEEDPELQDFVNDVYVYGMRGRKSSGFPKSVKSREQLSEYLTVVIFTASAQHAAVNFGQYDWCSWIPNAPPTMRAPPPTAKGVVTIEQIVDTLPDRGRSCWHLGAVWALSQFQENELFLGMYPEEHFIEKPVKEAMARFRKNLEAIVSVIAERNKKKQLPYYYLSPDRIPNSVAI
Briefly: Lipoxygenase 5-LO. The format is biochemical.

For data set [7], the target named is Cathepsin L (Homo sapiens, UniProt P07711). Briefly: Cathepsin L. The format is biochemical.
Sequence of Cathepsin L (P07711 114-333): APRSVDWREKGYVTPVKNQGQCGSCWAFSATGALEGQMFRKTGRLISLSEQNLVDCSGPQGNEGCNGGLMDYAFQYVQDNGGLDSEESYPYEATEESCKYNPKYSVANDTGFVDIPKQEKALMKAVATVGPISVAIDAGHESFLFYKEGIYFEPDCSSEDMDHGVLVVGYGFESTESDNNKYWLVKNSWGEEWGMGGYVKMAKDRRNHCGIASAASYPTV
The target of data set [8] is Cathepsin S (Homo sapiens, UniProt P25774). Kind of data set: Cathepsin S. The data set is classed as biochemical.
Sequence of Cathepsin S (P25774 115-331): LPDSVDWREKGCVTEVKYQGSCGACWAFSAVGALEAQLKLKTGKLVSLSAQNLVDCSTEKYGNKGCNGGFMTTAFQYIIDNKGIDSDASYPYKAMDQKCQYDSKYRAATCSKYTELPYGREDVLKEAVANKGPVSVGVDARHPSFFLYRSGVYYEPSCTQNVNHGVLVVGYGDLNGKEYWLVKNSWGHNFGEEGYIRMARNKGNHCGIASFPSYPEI
The target of data set [9] is Phosphodiesterase PDE5 (Homo sapiens, UniProt O76074). Briefly: Phosphodiesterase PDE5. The data set is classed as biochemical.
Data set [10] concerns the target Transporter, monoamine. Kind of data set: Transporter, monoamine. The format is binding. As to conditions: Vesicular monoamine transporter (rabbit).
For data set [11], the target named is T4, UDP glucuronosyltransferase, UGT1A1 (Homo sapiens, UniProt P22309).
T4 sequence (P22309 26-533): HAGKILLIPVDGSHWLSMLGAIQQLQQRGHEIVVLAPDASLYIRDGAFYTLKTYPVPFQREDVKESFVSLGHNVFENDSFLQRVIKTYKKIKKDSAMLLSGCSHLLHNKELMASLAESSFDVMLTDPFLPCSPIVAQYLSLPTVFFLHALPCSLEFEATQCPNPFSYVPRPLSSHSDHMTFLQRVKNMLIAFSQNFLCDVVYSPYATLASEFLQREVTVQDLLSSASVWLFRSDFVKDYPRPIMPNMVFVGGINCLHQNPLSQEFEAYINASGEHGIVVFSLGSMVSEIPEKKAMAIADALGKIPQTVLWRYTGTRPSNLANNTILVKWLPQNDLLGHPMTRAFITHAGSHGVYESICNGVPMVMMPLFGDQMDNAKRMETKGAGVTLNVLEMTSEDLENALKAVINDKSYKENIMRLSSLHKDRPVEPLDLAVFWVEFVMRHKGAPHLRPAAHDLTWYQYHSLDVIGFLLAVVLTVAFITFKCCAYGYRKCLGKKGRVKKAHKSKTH
Kind of data set: UDP glucuronosyltransferase, UGT1A1. The format is biochemical.

Data set [12] has as its system Purified human recombinant kinases. The format is biochemical. As to conditions: median estimate of curve top showing <50% inhibition.
The target in data set [13] is T1, Adenosine A3 receptor. The format is biochemical.
The test system of data set [14] is adenosine transporter. The format is cell-based, human.
For data set [15], the system named is 314 diverse molecular targets. Kind of data set: Eurofins Panlabs broad in vitro panel, 10 μmol/L single concentration screen. As to conditions: at nine of 314 targets.
For data set [16] the following is noted: ref Mikus et al. [2013]; cited from earlier work.
Data set [17] deals with KDR (VEGFR2). Kind of data set: KDR inhibition measured in HUVEC cells. The format is cell-based, human. As to conditions: from KDR IC50 data of ref McTigue et al. [2012].

Take `CNC(=O)[C@H]1O[C@@H](n2cnc3c(NCc4cccc(I)c4)ncnc32)[C@H](O)[C@@H]1O` [CF101]: the “adverse effects on blood pressure” value in data set [1] is “no adverse effects on blood pressure”.

`COc1cc(Nc2ncc(F)c(Nc3ccc4c(n3)NC(=O)C(C)(C)O4)n2)cc(OC)c1OC` [R406]: the solubility in data set [2] (solubility in DMSO, 100% DMSO) was about 140 mM (≈ 65.9 mg/mL); in data set [2] (solubility in phosphate-buffered saline, physiological pH), 0.0002 mM (≈ 9.41e-05 mg/mL). For the same compound, the “inhibition of the qPCR signal” value in data set [3] was at least 80%. Besides, the Ki worked out at 0.017 µM in data set [4] and 1.63 µM in data set [10] (read-out: Radioligand binding Ki). Further, the Mode of action result in data set [5] (Fatty acid amide hydrolase (rat)), in [6] (5-Lipoxygenase (human)), in data set [7] (Cathepsin L (human)), in data set [8] (Cathepsin S (human)), in data set [9] (Phosphodiesterase PDE5 (human)) and in data set [11] (UDP glucuronosyltransferase UGT1A1 (human)) was “Inhibitor” each time. The Mode of action entry in [13] (Adenosine A3 receptor (human)) is “Antagonist”; in [14] (Adenosine transporter (human)) it was “Inhibitor”. Further, the IC50 in data set [5] (Radioligand binding or enzyme activity IC50, Fatty acid amide hydrolase (rat)) came out at 1.51 µM; in [6] (Radioligand binding or enzyme activity IC50, 5-Lipoxygenase (human)) it was 5.5 µM; in [7] (Radioligand binding or enzyme activity IC50, Cathepsin L (human)), 5.93 µM; in data set [8] (Radioligand binding or enzyme activity IC50, Cathepsin S (human)) it was 11.9 µM; in [9] (Radioligand binding or enzyme activity IC50, Phosphodiesterase PDE5 (human)) it was 0.308 µM; in [10] (read-out: Radioligand binding or enzyme activity IC50), 1.96 µM. Besides, the concentration for half-maximal inhibition (IC50) worked out at 0.143 µM in data set [11] (Radioligand binding or enzyme activity IC50, UDP glucuronosyltransferase UGT1A1 (human)) and 0.1 µM in [14] (read-out: IC50, inhibition of adenosine uptake, U937 cells, [^3H]adenosine). Moreover, the “activity in the remaining 19 of 139 kinase activity assays” value in data set [12] was “inactive”. The “effect of R406 on its own on GTPγS binding” value in [13] (concentrations up to 10 μmol/L, absence of agonist) was “no effect”. The compound also gave an inhibition in [15] of over 50%.

Take `COc1ccc(C(=O)Nc2nc3ccccc3c(NCc3ccccc3)c2C#N)cc1` [SSR161421]: in data set [16], the “effects in animal models of asthma” value is “beneficial effects”.

`COc1cc2c(Oc3ccc4[nH]c(C)cc4c3F)ncnc2cc1OCCCN1CCCC1` [cediranib]: the “fold more potent at KDR than sunitinib” value in [17] was about 31 fold.
